Source: patent publication US9956176B2, “Compositions and methods for treating ewing sarcoma” (priority 2014, dated 2018)
d = 2'-deoxy (DNA); m = 2'-O-methyl

How the values were obtained:
RNA polymerase II = target: T1, RNA polymerase II (Homo sapiens, UniProt P24928); experiment: inhibition of FEZF1-AS1 transcription; format: cell-based
T1 construct: endogenous in cells; host or cells: Ewing sarcoma cells
Description: FEZF1-AS1 is located on human chromosome 7q31.32 on the positive strand and overlaps the first two exons of protein-coding gene, FEZF1, which lies on the opposite strand. To characterize this gene in Ewing sarcoma, we performed Northern blot analysis using different biotin-labelled probes that confirmed the 2.6 kb transcript was predominantly expressed in Ewing sarcoma. […] RNA-sequencing of two Ewing sarcoma cell lines, CHLA-9 and CHLA-10, identified multiple isoforms of the transcript, some of which included introns and/or extended beyond exon 7. CHLA-9 and CHLA-10 are Ewing sarcoma cell lines from the same patient. CHLA-9 is from the primary tumor and CHLA-10 is from the metastatic tumor. We validated some of the isoforms by PCR and Sanger sequencing. To confirm the annotation of FEZF1-AS1 as a non-coding RNA, we used the coding potential calculator algorithm that assigned a low score of −1.2 compared to scores of 5 and above for coding genes such as FLI1, and NR0B1. FEZF1-AS1 transcription was inhibited by alpha-amanitin but not by RNA Polymerase III inhibitor, thus confirming that RNA polymerase II transcribes the lncRNA. […] Thus, lncRNA FEZF1-AS1 is a highly expressed gene is Ewing sarcoma.

[1] = system: human Acute Lymphoblastic Leukemia (REH cells); experiment: REH-Luc leukemia xenograft, tumor burden by Xenogen camera; format: in vivo, mouse
Description: (§1) To complete the mouse efficacy and safety studies we injected NOG mice with 6×10^6 luciferase transfected human Acute Lymphoblastic Leukemia (REH cells). This special transgenic type of mouse has deletions in the gene encoding the interleukin 2 receptor γ (IL2Rγ) and has added genes expressing human iL3, GM-CSF and SCF. To prevent rejection of injected human leukemia cells, the NOG mice have a complete lack of B, T, and NK cells, and a deficiency of cytokine signaling. The mice were separated into six groups. Group 1 received only buffer treatment; group 2-untargeted, unloaded HPLN; group 3-untargeted, HPLN/Dox (2 mg Dox/kg); group 4-(targeted) anti-CD-19/HPLN/Dox (2 mg Dox/kg); group 5-Doxil (2 mg Dox/kg); and group 6-(free) doxorubicin (2 mg Dox/kg).
(§2) Upon injection of the leukemia cells, Xenogen camera images were done once per week and used to assess both tumor cell distribution and quantitative tumor burden. After 10 days post leukemia cell injection, our targeted nanoparticle drug (anti-CD-19/HPLN/Dox) or control particles or drugs, were administered to the mice, in once a week dosages. The amount of drug given was based on the active substance (doxorubicin), not on total nanoparticle mass in each formulation (except for group 2, these mice received an equivalent HPLN dose in unloaded form). […]

[2] = format: in vivo; conditions: once a week IV
Description: as §1, §2

FEZF1-AS1 = FEZF1-AS1 expression in A673 cells; format: cell-based, human

alpha-amanitin
FEZF1-AS1 transcription (RNA polymerase II): inhibited

COc1cccc2c1C(=O)c1c(O)c3c(c(O)c1C2=O)C[C@@](O)(C(=O)CO)C[C@@H]3O[C@H]1C[C@H](N)[C@H](O)[C@H](C)O1 [doxorubicin]
tumor growth / tumor reduction ([1]; 2 mg Dox/kg once a week from day 10, IV, FIG. 4): significant tumor reduction | tumor size and burden ([1]; 2 mg Dox/kg, day 35, FIG. 8): markedly less | tolerability, acute toxic reactions [2]: lose weight and appeared sickly

5-mG*mU*mG*mU*mG*T*G*T*G*T*C*T*G*C*T*mU*mG*mU*mU*mU-3′ (antisense GUGUGTGTGTCTGCTUGUUU; sugars from the 5' end m5 d10 m5, all phosphorothioate, methylation of C not given here) [FA7]
knockdown levels (FEZF1-AS1; A673, 48 hours): about 50% | FEZF1-AS1 levels reduced to (FEZF1-AS1; A673, nucleofection, 24 hours): 80%
